Patent US8435949B2, “Pheromones and the luteinizing hormone for inducing proliferation of neural stem cells and neurogenesis” (Stem Cell Therapeutics Corp., priority 2004, dated 2013)
Values joined by “and” are separate entries in the source; they are usually repeats but may differ in a detail not shown here. Equal entries are not always repeated.

What was measured:
neural stem cells = test: Neural stem cell culture: secondary sphere formation from dissociated primary spheres (self-renewal); assay type: cell-based, mice; settings: for number of secondary spheres: EGF or EGF plus LH (30 nM), limited density, Exp. #1-#3
Description: Generation and differentiation of spheres from embryonic and adult forebrain were performed as described previously with minor modifications (Reynolds and Weiss, 1992; Reynolds et al., 1992). Briefly, striato-pallidum complexes were removed from mouse embryos at E14 and collected into PBS containing 0.6% glucose, penicillin (50 U/ml), and streptomycin (50 U/ml; both from Life Technologies, Gaithersburg, Md.) and then transferred into the standard culture medium composed of DMEM-F-12 (1:1), glucose (0.6%), glutamine (2 mM), sodium bicarbonate (3 mM), HEPES buffer (5 mM), insulin (25 μg/ml), transferrin (100 μg/ml), progesterone ([…]), putrescine (60 μM), and selenium chloride (30 nM) (all from Sigma, St. Louis, Mo., except glutamine from Life Technologies) For adult neural stem cell cultures, medial and lateral portions of the lateral ventricle subependyma from the adult brain were dissected from both hemispheres, pooled together, subsequently cut into 1 mm^2 fragments, and transferred into the standard culture medium containing 1.33 mg/ml trypsin, 0:67 mg/ml hyaluronidase, and 0.2 mg/ml kynurenic acid (all from Sigma). After 30 min at 37° C., the tissue was transferred to the standard culture medium containing 0.7 mg/ml trypsin inhibitor (Roche Diagnostics, Laval, Quebec, Canada). Tissue pieces were mechanically dissociated with micropipettes. Cells were seeded at various densities into the standard culture medium, which also contained EGF (20 ng/ml human recombinant; Peprotech, Rocky Hill, N.J.). Cells were cultured for 7 days in vitro (DIV) and formed floating cell clusters (spheres). All the mice for culture experiments were killed by cervical dislocation.

[1] = system: neural stem cells in the SVZ; test: Infusion into the lateral ventricle by osmotic pump; BrdU positive (proliferating) cells counted in the SVZ; assay type: in vivo, mice; settings: infusion of combination of LH and prolactin or hCG and prolactin vs LH or hCG; Example 5
Description: To examine the number of progenitor cells in the SVZ after treatment, bromodeoxyuridine (BrdU) injections were used to label these cells. Animals received BrdU injections (120 mg/kg, i.p., dissolved in 0.007% NaOH in phosphate buffer) every 2 hours for a 10 hour period.
The sections were post-fixed with acetone for 30 seconds at room temperature and washed with PBS. For BrdU staining, the tissue was treated with 1M HCl for 22 minutes at 60° C. to denature cellular DNA. Sections were then incubated for 24 hours at room temperature in primary antibody (rat anti-BrdU, 1:50) diluted in 0.3% PBS-T containing 10% NGS, washed with PBS, and then incubated with goat-anti-rat secondary antibodies conjugated to biotin (1:200) for 1 hour at room temperature. After rinsing with ddH2O, sections were mounted with Fluorosave, because staining was visualized with CY3-Streptavodin, and viewed with a Zeiss Axiophot fluorescence microscope.
A one-in-ten series of coronal sections (14 μm) from the rostral tip of the lateral ventricle to caudal most aspect of the ventricles (total 10 sections) were collected. BrdU-positive cells were then counted in the defining ependymal-subependymal layer.
Sixteen 8-week-old CD-1 mice (Charles-River, Laval, Quebec, Canada) were anesthetized with sodium pentobarbital (120 mg/kg, i.p.) and implanted with osmotic pumps (Alzet 1007D; Alza, Palo Alto, Calif.). […]

| Molecule | number of secondary spheres (neural stem cells; neural stem cells isolated from female mice) | number of secondary spheres (neural stem cells; neural stem cells isolated from male mice) | self-renewal (the number of secondary spheres from primary spheres) (neural stem cells; prolactin added with LH or hCG in neural stem cell cultures, Example 5) | proliferation in the SVZ, prolactin added to LH or hCG [1] |
| --- | --- | --- | --- | --- |
| EGF: EGF, 20 ng/ml human recombinant; Peprotech; comparator culture condition | 172.3 and 157.6 and 197.9 | 144.4 and 225.1 and 168.2 | – | – |
| prolactin: additional agent given in combination with LH or hCG (protein, UniProt P01236 29-227, looked up) Prolactin: LPICPGGAARCQVTLRDLFDRAVVLSHYIHNLSSEMFSEFDKRYTHGRGFITKAINSCHTSSLATPEDKEQAQQMNQKDFLSLIVSILRSWNEPLYHLVTEVRGMQEAPEAILSKAVEIEEQTKRLLEGMELIVSQVHPETKENEIYPVWSGLPSLQMADEESRLSAYYNLLHCLRRDSHKIDNYLKLLKCRIIHNNNC | – | – | enhanced | further enhances the effects of LH or hCG |
